Measured values: a melting point compilation (Tetko et al.; mined from patent text by program, amines drawn as free bases though some values may be those of a salt)

Compound | melting point
CCOCN1C(C)=C(C(=O)O)C(c2cccc([N+](=O)[O-])c2)C(C(=O)OC)=C1C (single isomer, unassigned; (-)) | 134 to 135 °C
Nc1nsc(Nc2c(Cl)cccc2Cl)n1 | 178 to 179 °C
CC(C)c1cc(-c2ccccc2)nc(-c2ccc(F)cc2)c1C=C(Br)Br | 124 to 126 °C
COCCOCC(=O)Nc1ccnn1-c1c(Cl)cc(C(F)(F)F)cc1Cl | 158 to 160 °C
O=C(NCCO)c1cccc(-c2cccc3nn(Cc4cccc(C(F)(F)F)c4)cc23)c1 | 136 to 137 °C
Cn1ncc(C(=O)N2CCOCC2)c1C(=O)Nc1ccn2nc(-c3cccnc3)nc2c1 | 218 to 220 °C
CCOCCNC(=O)c1ccn2nc(-c3ccccc3)c(-c3ccc(=O)n(C(C)C)n3)c2c1 | 149 to 150 °C
Cc1cccc(C)c1NCCCC(=O)N(C(=O)c1ccc(Cl)cc1)[C@@H](Cc1ccccc1)C(=O)O | 153 to 155 °C
CC(C)[C@H](NC(=O)OCc1ccccc1)C(=O)OC[C@H]1O[C@@H](n2cc(F)c(=O)[nH]c2=O)[C@H](O)[C@@H]1O | 64 to 67 °C
CC1(C)CC(N)(C(N)=O)CC(C)(C)N1 | 142 to 144 °C
FC(F)(F)c1ccc2nc[nH]c2c1 | 89 to 91 °C
Oc1ccc(Cl)cc1I | 79 to 82 °C
COCCOc1ccc(/C=C/C(=O)O)c(OCc2ccc(Cl)cc2Cl)c1 | 176 to 178 °C
COc1cccc(CC(=O)O)c1OCCCc1cn(-c2ccc(F)cn2)nc1C(C)C | 125 to 126 °C
Cc1ccccc1-c1c(NC(=O)Nc2ccc(F)cc2F)c(=O)oc2ccc(Cl)cc12 | 210 to 212 °C
CC(=O)c1ccc(O)c(-n2nc3ccccc3n2)c1 | 147 °C
O=C(C=Cc1cc(Br)c(O)c(Br)c1)N1CCc2c([nH]c3ccccc23)C1c1ccc2c(c1)OCO2 (configuration not stated) | 148 to 150 °C
CN1C(=O)C(NC(=O)Nc2ccccc2)C(=O)N(CC23CC4CC(CC(C4)C2)C3)c2ccccc21 (single isomer, unassigned; (-)) | 173 to 178 °C
Cc1ccc(C=CC2CCC(c3ccccc3)(N(C)C)CC2)cc1 (configuration not stated) | 130 to 145 °C
N#CC(C#N)(OC(=O)c1ccc(Cl)cc1)c1ccc(Cl)cc1 | 158 to 159 °C
COc1ccc(CN(CCN(C)CCCNC(=NCCCOc2cccc(CN3CCCCC3)c2)NC#N)c2ccccn2)cc1 | 62 to 65 °C
Cc1c(-c2ccc(O)cc2)n(Cc2ccc(OCCN3CCCCC3)cc2)c2ccc(O)cc12 | 214 to 217 °C
O=S1(=O)c2cccc3cccc(c23)N1CCN1CCC(CC2CCc3ccccc32)CC1 (configuration not stated) | 127 °C
Cc1cccc(NC(=O)NC2(C)N=C(N3CCN(C)CC3)c3cccc(C)c3N(C)C2=O)c1 (configuration not stated) | 136 to 140 °C
COC(=O)c1cn(CCN)c(Cl)c1-c1cccc(C#N)c1 | 111 to 113 °C

Compound | melting point
CC(=C1SC(=O)NC1=O)c1ccc(OCCOc2c(-c3ccc(F)c(F)c3)n(C)c3cc(Cl)ccc3c2=O)c(Cl)c1 | 140 to 142 °C
COC(=O)Cc1nc(-c2ccc(OC)c(OC)c2)c2cc(OC)c(OC)cc2n1 | 152 to 153 °C
Cc1c(C)c2c(c3c1NCC3)CC(C)(C)O2 | 107 to 109 °C
OC[C@H]1CC[C@H](c2ccc(Cl)cc2)CC1 | 60 to 63 °C
COc1cc2c3c(cccc3c1N1CCC(N)C1)C(=O)N(O)C2=O (configuration not stated) | 217 to 222 °C
C#CCC#CCC#CCOc1ccc(C)cc1 | 34.5 to 35.5 °C
CCOC(=O)c1cc(C(O)(C(F)(F)F)C(F)(F)F)ccc1N | 115 to 117 °C
CCOc1ccc([C@@H]2CCNC(=O)[C@H]2c2ccccc2)cc1 (relative stereo) | 161 to 162 °C
COC(=O)Cc1ccccc1SCc1cccc(OC)c1 | 87 to 89 °C
CC1CC(=O)NN=C1c1ccc2c(c1)NCC(c1ccccc1)N2 (configuration not stated) | 209 to 215 °C
Cc1cc(C)c2ncc(NC(=O)C=Cc3cc(C)c(O)c(C)c3)c(-c3ccccc3Cl)c2c1 | 249 to 251 °C
CC(C)N(O)C(=O)Cc1ccc2c(c1)C(=O)c1ccccc1CO2 | 144 to 145 °C
CCOc1nc(-c2ccc(Cl)cc2)c(CCC(=O)O)o1 | 148 to 149 °C
CCS(=O)(=O)c1cccnc1S(=O)(=O)NC(C)(C)C | 58 to 63 °C
COC(=O)c1ccc(S(C)(=O)=O)c(C(=O)NCC(C)CO)c1Cl (configuration not stated) | 70 to 72 °C
CCCCC(CC)COc1ccc2c(-c3ccc(CO)cc3)c3cc(OCC(CC)CCCC)ccc3c(-c3ccc(CO)cc3)c2c1 (configuration not stated) | 110 to 112 °C
CC(CC(=O)O)NC(=O)OCC1c2ccccc2-c2ccccc21 (configuration not stated) | 135 to 143 °C
CCn1c(=N)c(-c2cccs2)cc2cnc(Nc3ccccc3)nc21 | 204 to 205 °C
CCC(C)C1C(=O)NC(=S)N1C(C)=O (configuration not stated) | 132 to 133 °C
COC(=O)/C=C(\Cl)c1ccc(Cl)cc1 | 40 °C
CN(SC(Cl)(Cl)Cl)S(=O)(=O)C(Cl)=C(Cl)Cl | 57 to 58 °C
O=S(Cc1nnc(-c2ccc3c(c2)CCO3)o1)c1cccc(F)c1 (configuration not stated) | 131 to 132 °C
Cn1c2ccccc2c2c(N)c3c(nc21)C=CC3=O | 279 to 280 °C
CCOc1noc2c1C(=O)CCC2 | 98 to 99 °C
COC(=O)NC(=O)Nc1nc2c(Cl)cccc2s1 | 319 to 320 °C

Compound | melting point
CN(CCO)CCn1nc2c3c(c(NCCNCCO)ccc31)C(=O)c1c(O)ccc(O)c1-2 | 191 to 194 °C
CC(=NO)c1cccc(N)c1 | 133 °C
CC(C)OC(=O)C(C(=O)NCc1ccccc1)=C1SCS1 | 93 to 94 °C
COC(=O)c1sc2cncc(Oc3ccc(Cl)cc3)c2c1C | 140 to 141 °C
O=C1NCC2(CCN(CC(O)COc3cccc4ccccc34)CC2)O1 (configuration not stated) | 137 to 140 °C
CC(=O)NC1=NN(c2ccc(C(=O)C(F)(F)F)cc2)CC1 | 243 to 244 °C
CCN(c1ccc([N+](=O)[O-])cc1C#N)S(=O)(=O)c1ccc(C)cc1 | 135 to 136 °C
COc1ccc(OC)c(C(O)c2cccc(N)c2)c1 (configuration not stated) | 132 to 134 °C
OCc1cccc(-c2csc(-c3cn([C@H]4CN5CCC4CC5)nn3)c2)c1 | 211 °C
C=Cc1nc(-c2ccco2)c2ncn(Cc3ccc(OC)cc3)c2n1 | 94 to 95 °C
O=C1c2ccccc2CN1CC1CCN(CCc2c[nH]c3ccccc23)CC1 | 225 to 230 °C
COc1ccc2[nH]cc(C3CCN(CCCCN4C(=O)CC5(CCCC5)CC4=O)CC3)c2c1 | 150 °C
O=C1c2ccccc2C(=O)c2sc(-c3cccnc3)nc21 | 256 °C
CCCCSc1nc(=O)[nH]cc1F | 113 °C
CC12CCC(CC1=C=C1C=CC(Nc3nc(Cl)nc(NC4=CCC(=C=C5CC6CCC5(C)C6(C)C)C=C4)n3)=CC1)C2(C)C | 221 °C
CC(C)(CCCCOCCCCC(C)(C)C(=O)O)C(=O)O | 49 to 51 °C
CCOP(=O)(O)Cc1nc2nc[nH]c2c2nc(-c3ccc(C(C)(C)C)cc3)nn12 | 254 to 256 °C
CC#CCOc1ccc(S(=O)[C@@H](C(=O)NO)c2ccc(OC)cc2)cc1 (some centres not stated) | 134 °C
Cc1scc2c1N(C(=O)CN1CCCCC1CN(C)C)c1ccccc1NC2=O (configuration not stated) | 172 to 173 °C
O=C(Cc1ccc(OCc2ccc(F)cc2)cc1)NC1(c2nn[nH]n2)Cc2ccc(-c3ccc(Cl)cc3)cc2C1 (configuration not stated) | 108 to 110 °C
CC(=O)Sc1ccc(C#Cc2ccc(C=O)cc2)cc1 | 128 to 129 °C
CCOc1cc2c(cc1OCC)[C@@H]1CN(C)CC[C@@H]1N=C2c1ccc(NS(=O)(=O)c2ccc(C)cc2)cc1 | 267 to 268 °C
CCc1nn(-c2ccc(F)cc2)c2cc(C(=O)Nc3c(Cl)cncc3Cl)ccc12 | 197 to 199 °C
O=C(O)C(CCC1=CCCCC1)Oc1ccc(-c2ccc(Cl)s2)cc1 (configuration not stated) | 136 to 138 °C
CC(C)(C)c1cc(OCc2n[nH]c(=O)o2)cc(C(C)(C)C)c1O | 138 to 140 °C

Compound | melting point
COC(=O)CN1CN(c2ccccc2)C2(CCN(Cc3cccc4ccccc34)CC2)C1=O | 122 to 135 °C
CCOc1ccc(C2(N)NC(Nc3ccc4c(c3)OCCO4)=NC=C2F)cc1 (configuration not stated) | 164 to 167 °C
OC[C@H]1C[C@@H](n2cnc3c(N[C@H]4CCN(c5ccc(C(F)(F)F)cc5)C4)ncnc32)[C@H](O)[C@@H]1O | 111 to 114 °C
COc1ccc(C=CCN2CCc3nc(N)sc3CC2)cc1 | 155 to 160 °C
O=c1[nH]c2ccc(S(=O)CCN3CCC(Cc4ccc(Cl)cc4)CC3)cc2o1 (configuration not stated) | 213 to 214 °C
COc1ccc(CCN(C)CCc2ccc(NC(=O)c3cccc4c(=O)c5ccccc5sc34)cc2)cc1OC | 154 °C
O=C(O)C1CSC(c2ccccc2-c2ccccc2)N1 (mixture of isomers) | 190 °C
CCOc1cc([C@@H](CS(C)(=O)=O)N2Cc3cccc(NCC4CC4)c3C2=O)ccc1OC | 147 to 149 °C
CCNc1nc2cc(Cc3c(C)nc4cc(C)ccn34)ccc2o1 | 209 to 211 °C
C#CCOc1cc(OCC#C)c2c(=O)cc(-c3ccc(OC)c(OCC#C)c3)oc2c1 | 196 °C
COc1ccc2c(c1)C(=O)CC1(CCN(SCCc3cc(=O)n(C)c(=O)n3C)CC1)O2 | 191 to 194 °C
COc1ccc(C=C(C=O)C(C=O)=Cc2ccc(OC)cc2)cc1 | 207 °C
O=c1oc(-c2cccc(C(F)(F)F)c2)cc(O)c1SCc1ccccc1 | 152 to 153 °C
CCOC(=O)c1cc(NCc2ccccc2)c(Nc2ccc(OC)cc2)c(S(N)(=O)=O)c1 | 145 °C
CC1(C)COc2ccc(F)cc2C(O)(c2ccccn2)C1 (configuration not stated) | 110 °C
C#CCOc1cc(OCC=C)ccc1-c1nc2ncccc2[nH]1 | 210 °C
Cc1ccc(C2CCCN2S(=O)(=O)c2ccc(Cl)cc2)cc1 (racemic) | 129 °C
O=C(O)Cc1cccc(F)c1OCCc1ccccc1 | 74 to 75 °C
CSc1c(C)n(C)c2ccccc12 | 50 to 52 °C
O=C(NCCc1cccs1)C12CC3CC(CC(O)(C3)C1)C2 | 118 to 119 °C
CCOC(=O)c1c(C)n(-c2ccc(N(CC)CC)cc2)c(C)c(C(=O)OCC)c1=O | 138 °C
CCCc1nc(C(C)(C)O)c(C(=O)OCC)n1Cc1ccc(-c2ccccc2C(N)=O)cc1 | 148 to 151 °C
